US5965088A, “Method for providing rapid disinfection of contact lenses” (priority 1997, dated 1999)
Where two headings read alike, the source gives them in different places.

Test system: Serratia marcescens (ATCC 13880)
Assay: Antimicrobial efficacy (stand-alone log reduction), S. marcescens
Assay type: cell-based
Details: for log reduction at 4 ppm / log reduction at 1 ppm / log reduction at 2 ppm / log reduction at 3 ppm / log reduction at 5 ppm / log reduction at 4 µg/mL: Serratia marcescens; for log reduction at 4 µg/mL: 4.0 ppm alexidine in ReNu MPS; for Log Reduction S. marcescens: PAPB 0.0
Description: This Example illustrates the microbiocidal efficacy of solutions according to the present invention. The antimicrobial efficacy of each of various compositions for the chemical disinfection of contact lenses was evaluated. Microbial challenge inoculums were prepared using Pseudomonas aeruginosa (ATCC 9027), Staphylococcus aureus (ATCC 6538), Serratia marcescens (ATCC 13880), Candida albicans (ATCC 10231), and Fusarium solani (ATCC 36031). The test organisms were cultured on appropriate agar and the cultures were harvested using sterile DPBST (Dulbecco's Phosphate Buffered Saline plus 0.05% w/v polysorbate 80) or a suitable diluent and transferred to a suitable vessel. Spore suspensions were filtered through sterile glass wool to remove hyphal fragments. Serratia marcescens, as appropriate, was filtered (eg., through a 1.2 μ filter) to clarify the suspension. After harvesting, the suspension was centrifuged at no more than 5000× g for a maximum of 30 minutes at 20-25° C. The supernatant was poured off and resuspended in DPBST or other suitable diluent. The suspension was centrifuged a second time, and resuspended in DPBST or other suitable diluent. All challenge bacterial and fungal cell suspensions were adjusted with DPBST or other suitable diluent to 1×10^7 -10^8 cfu/mL. The appropriate cell concentration may be estimated by measuring the turbidity of the suspension, for example using a spectrophotometer at a preselected wavelength, for example 490 nm. One tube was prepared containing a minimum of 10 mL of test solution per challenge organism. Each tube of the solution to be tested was inoculated with a suspension of the test organism sufficient to provide a final count of 1.0×10^5 -10^6 cfu/mL, the volume of the inoculum not exceeding 1% of the sample volume. Dispersion of the inoculum was ensured by vortexing the sample for at least 15 seconds. The inoculated product was stored at 10-25° C. Aliquots in the amount of 1.0 mL were taken of the inoculated product for determination of viable counts after certain time periods of disinfection. The time points for the bacteria were 25, 50, 75, and 100% of the minimum disinfection time. Yeast and mold were tested at an additional timepoint of at least 400% of the minimum disinfection time. The suspension was mixed well by vortexing vigorously for at least 5 second. The 1.0 mL aliquots removed at the specified time intervals were subjected to a suitable series of decimal dilutions in validated neutralizing media. The suspensions were mixed vigorously and incubated for a suitable period of time to allow for neutralization of the microbial agent. The viable count of organisms was determined in appropriate dilutions by preparation of triplicate plates of trypticase soy (TSA) agar for bacteria and Sabouraud dextrose agar (SDA) for mold and yeast. The bacterial recovery plates were incubated at 30-35° C. for 2-4 days. The yeast was incubated at 20-30° C. for 2-4 days and mold recovery plates at 20-25° C. for 3-7 days. The average number of colony forming units was determined on countable plates. Countable plates refer to 30-300 cfu/plates for bacteria and yeast, and 8 to 80 cfu/plate for mold except when colonies are observed only for the 10^0 or 10^-1 dilution plates. The microbial reduction was then calculated at the specified time points. […] Following inoculation in a validated neutralizing broth and incubation for an appropriate period of time, the inoculum control must be between 1.0×10^5 -1.0×10^6 cfu/mL
The solutions were evaluated based on the performance requirement referred to as the "Stand-Alone Procedure for Disinfecting Products" (hereafter the "stand-alone test") and is based on the Disinfection Efficacy Testing for contact lens care products under the Draft Premarket Notification (510(k)) Guidance Document For Contact Lens Care Products dated Apr. 1, 1996, prepared by the U.S. Food and Drug Administration, Division of Ophthalmic Devices. […]

`CCCCC(CC)CNC(=N)NC(=N)NCCCCCCNC(=N)NC(=N)NCC(CC)CCCC.Cl.Cl` (stereo not shown) [Alexidine.2HCl, 1,1 '-hexamethylenebis(5-(2-ethylhexyl)-biguanide) dihydrochloride] showed a log reduction at 4 ppm (ATCC13880, 2.5 min, 4.0 ppm, aged 18 months, Exp. 1, 2.5 min, read-out: Log Reduction) of 0.5, a log reduction at 4 ppm (ATCC13880, 2.5 min, 4.0 ppm, aged 18 months, Exp. 2, 2.5 min, read-out: Log Reduction) of 0.8 and a log reduction at 4 ppm (ATCC13880, 2.5 min, 4.0 ppm, aged 18 months, Exp. 3, 2.5 min, read-out: Log Reduction) of 0.8. It also gave a log reduction at 4 ppm (ATCC13880, 5 min) of 0.6, a log reduction at 1 ppm (ATCC13880, 5 min, 1.0 ppm, read-out: Log Reduction at 5 Minutes) of 0.5 and a log reduction at 2 ppm (ATCC13880, 5 min, 2.0 ppm, read-out: Log Reduction at 5 Minutes) of 0.8. For the same compound, the log reduction at 3 ppm (ATCC13880, 5 min, 3.0 ppm, read-out: Log Reduction at 5 Minutes) was 1.1, the log reduction at 4 ppm (ATCC13880, 5 min, 4.0 ppm, aged 18 months, Exp. 2, 5.0 min, read-out: Log Reduction) was 2 and the log reduction at 4 ppm (ATCC13880, 5 min, 4.0 ppm, aged 18 months, Exp. 3, 5.0 min, read-out: Log Reduction) was 2. It also gave a log reduction at 4 ppm (ATCC13880, 5 min, 4.0 ppm, read-out: Log Reduction at 5 Minutes) of 2, a log reduction at 5 ppm (ATCC13880, 5 min, 5.0 ppm, read-out: Log Reduction at 5 Minutes) of 2.9 and a log reduction at 4 ppm (ATCC13880, 0.125 h, 4.0 ppm, aged 18 months, Exp. 1, 7.5 min, read-out: Log Reduction) of 0.9. It also gave a log reduction at 4 ppm (ATCC13880, 0.125 h, 4.0 ppm, aged 18 months, Exp. 2, 7.5 min, read-out: Log Reduction) of 2.8, a log reduction at 4 ppm (ATCC13880, 0.125 h, 4.0 ppm, aged 18 months, Exp. 3, 7.5 min, read-out: Log Reduction) of 2.2 and a log reduction at 4 ppm (ATCC13880, 10 min) of 1.2. For the same compound, the log reduction at 1 ppm (ATCC13880, 10 min, 1.0 ppm, read-out: Log Reduction at 10 Minutes) was 0.7, the log reduction at 2 ppm (ATCC13880, 10 min, 2.0 ppm, read-out: Log Reduction at 10 Minutes) was 1.8 and the log reduction at 3 ppm (ATCC13880, 10 min, 3.0 ppm, read-out: Log Reduction at 10 Minutes) was 2.6. For the same compound, the log reduction at 4 ppm (ATCC13880, 10 min, 4.0 ppm, aged 18 months, Exp. 2, 10.0 min, read-out: Log Reduction) was 2.8, the log reduction at 4 ppm (ATCC13880, 10 min, 4.0 ppm, aged 18 months, Exp. 3, 10.0 min, read-out: Log Reduction) was 2.2 and the log reduction at 4 ppm (ATCC13880, 10 min, 4.0 ppm, read-out: Log Reduction at 10 Minutes) was > 4.8. The log reduction at 5 ppm (ATCC13880, 10 min, 5.0 ppm, read-out: Log Reduction at 10 Minutes) was > 4.8, the log reduction at 4 ppm (ATCC13880, 0.25 h) was 3 and the log reduction at 4 ppm (ATCC13880, 0.25 h, 4.0 ppm, Ex. 6, aged 19 months at 25 °C, 15 min, read-out: Log Reduction) was 3.2. For the same compound, the log reduction at 4 ppm (ATCC13880, 0.25 h, 4.0 ppm, Ex. 8, different batch aged 19 months at 25 °C, 15 min, read-out: Log Reduction) was 2.5, the log reduction at 4 ppm (ATCC13880, 0.5 h, 4.0 ppm, Ex. 6, aged 19 months at 25 °C, 30 min, read-out: Log Reduction) was > 4.7 and the log reduction at 4 ppm (ATCC13880, 0.5 h, 4.0 ppm, Ex. 7, different lot aged 18 months, 30 min, read-out: Log Reduction) was 4.7. For the same compound, the log reduction at 4 ppm (ATCC13880, 0.5 h, 4.0 ppm, Ex. 8, different batch aged 19 months at 25 °C, 30 min, read-out: Log Reduction) was 4.6, the log reduction at 4 ppm (ATCC13880, 0.75 h, 4.0 ppm, Ex. 6, aged 19 months at 25 °C, 45 min, read-out: Log Reduction) was > 4.7 and the log reduction at 4 ppm (ATCC13880, 0.75 h, 4.0 ppm, Ex. 7, different lot aged 18 months, 45 min, read-out: Log Reduction) was > 4.8. The log reduction at 4 ppm (ATCC13880, 0.75 h, 4.0 ppm, Ex. 8, different batch aged 19 months at 25 °C, 45 min, read-out: Log Reduction) was > 4.7, the log reduction at 1 ppm (ATCC13880, 1 h, 1 ppm, 1 hr, read-out: Log Reduction) was 3.5 and the log reduction at 2 ppm (ATCC13880, 1 h, 2 ppm, 1 hr, read-out: Log Reduction) was > 4.8. For the same compound, the log reduction at 3 ppm (ATCC13880, 1 h, 3 ppm, 1 hr, read-out: Log Reduction) was > 4.8, the log reduction at 4 µg/mL (ATCC13880, 1 h, 1 hr) was 3.7 and the log reduction at 4 ppm (ATCC13880, 1 h, 4 ppm, 1 hr, read-out: Log Reduction) was > 4.8. For the same compound, the log reduction at 4 ppm (ATCC13880, 1 h, 4.0 ppm, Ex. 6, aged 19 months at 25 °C, 60 min, read-out: Log Reduction) was > 4.7, the log reduction at 4 ppm (ATCC13880, 1 h, 4.0 ppm, Ex. 7, different lot aged 18 months, 60 min, read-out: Log Reduction) was > 4.8 and the log reduction at 4 ppm (ATCC13880, 1 h, 4.0 ppm, Ex. 8, different batch aged 19 months at 25 °C, 60 min, read-out: Log Reduction) was > 4.7. The log reduction at 5 ppm (ATCC13880, 1 h, 5 ppm, 1 hr, read-out: Log Reduction) was > 4.8, the log reduction at 4 µg/mL (ATCC13880, 2 h, 2 hr) was > 4.7 and the log reduction at 4 µg/mL (ATCC13880, 3 h, 3 hr) was > 4.7. For the same compound, the log reduction at 4 µg/mL (ATCC13880, 4 h, 4 hr) was > 4.7, the “Log Reduction S. marcescens” value (alexidine 0.5 ppm, 15 min) was 0.6 log and the “Log Reduction S. marcescens” value (alexidine 0.5 ppm, 30 min) was 1.6 log. For the same compound, the “Log Reduction S. marcescens” value (alexidine 0.5 ppm, 60 min) was 2.5 log, the “Log Reduction S. marcescens” value (alexidine 2.6 ppm, 15 min) was 2.2 log and the “Log Reduction S. marcescens” value (alexidine 2.6 ppm, 30 min) was > 4.3 log. For the same compound, the “Log Reduction S. marcescens” value (alexidine 2.6 ppm, 60 min) was > 4.3 log.
